# From patent US8466113B2, “4-isopropylphenyl glucitol compounds as SGLT1 inhibitors” (Taisho Pharmaceutical Co., Ltd., priority 2009, dated 2013)
# Assays:
# [1] = target: T1, human SGLT2 protein modified to have LeuGluSerArgGlyProVal added to the carboxy-terminal final residue (Homo sapiens, UniProt P31639); assay: Inhibition test for sodium-dependent sugar uptake in CHO-K1 cells stably expressing human SGLT2, Method A; format: cell-based; details: uptake 37° C., 60 minutes, read-out: IC50 for hSGLT2 Method A
# T1 construct: expressed in transfected cells; host or cells: CHO-K1
# T1 sequence (P31639 with tags, fused parts or gaps): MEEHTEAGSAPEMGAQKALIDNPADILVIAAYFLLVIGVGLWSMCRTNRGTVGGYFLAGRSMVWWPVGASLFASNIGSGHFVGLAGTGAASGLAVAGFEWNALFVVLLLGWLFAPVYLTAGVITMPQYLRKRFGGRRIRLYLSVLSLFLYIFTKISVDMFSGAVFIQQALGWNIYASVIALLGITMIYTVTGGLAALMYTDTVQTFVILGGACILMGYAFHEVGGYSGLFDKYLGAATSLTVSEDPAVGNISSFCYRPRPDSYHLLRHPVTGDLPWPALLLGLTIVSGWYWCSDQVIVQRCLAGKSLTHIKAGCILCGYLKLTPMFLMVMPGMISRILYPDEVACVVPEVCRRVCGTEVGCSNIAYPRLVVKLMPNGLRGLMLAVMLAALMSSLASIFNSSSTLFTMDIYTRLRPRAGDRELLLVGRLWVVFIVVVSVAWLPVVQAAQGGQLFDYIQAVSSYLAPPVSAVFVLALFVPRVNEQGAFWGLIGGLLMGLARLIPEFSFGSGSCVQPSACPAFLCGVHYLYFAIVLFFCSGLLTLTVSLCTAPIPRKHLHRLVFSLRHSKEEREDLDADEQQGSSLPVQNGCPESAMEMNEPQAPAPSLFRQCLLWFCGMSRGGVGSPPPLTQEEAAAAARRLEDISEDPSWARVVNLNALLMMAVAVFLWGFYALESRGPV
# Protocol: (2) Creation of CHO-K1 Cells Stably Expressing Human SGLT2
# Method A (described in WO2007/136116): A plasmid vector expressing human SGLT2 protein modified to have LeuGluSerArgGlyProVal added to the carboxy-terminal final residue was transfected into CHO-K1 cells using lipofectamine 2000 (Invitrogen). The cells were cultured in the presence of 500 μg/mL hygromycin B to select resistant strains, followed by screening in the system shown below using sugar uptake capacity as an indicator to obtain SGLT2-expressing cells.
# (3) Inhibition Test for Sodium-Dependent Sugar Uptake in Stably Expressing Cells
# The stably expressing cells prepared above were used in the following test.
# Pretreatment buffer (140 mM choline chloride, 2 mM KCl, 1 mM CaCl2, 1 mM MgCl2, 10 mM HEPES/5 mM Tris, pH 7.4) was added in a volume of 200 μL to the cells stably expressing SGLT1 or 2 mL for Method A and 200 μL for Method B to the cells stably expressing SGLT2, followed by incubation for 20 minutes. The pretreatment buffer was removed and replaced by uptake buffer containing a test compound (1 mM methyl α-D-glucopyranoside (containing [^14C]methyl α-D-glucopyranoside), 140 mM NaCl, 2 mM KCl, 1 mM CaCl2, 1 mM MgCl2, 10 mM HEPES/5 mM Tris, pH 7.4) in a volume of 75 μL for SGLT1 and SGLT2 in Method B or 200 μL for SGLT2 in Method A. Uptake reaction was performed at 37° C. for 30 minutes (SGLT1) or 60 minutes (SGLT2). After the reaction, the cells were washed twice with washing buffer (10 mM methyl α-D-glucopyranoside, 140 mM choline chloride, 2 mM KCl, 1 mM CaCl2, 1 mM MgCl2, 10 mM HEPES/5 mM Tris, pH 7.4) in a volume of 200 μL for SGLT1 and SGLT2 in Method B or 2 mL for SGLT2 in Method A, and then dissolved in a 0.25 M NaOH solution (75 μL for SGLT1 and SGLT2 in Method B or 400 μL for SGLT2 in Method A). A liquid scintillator (Perkin Elmer) was added and mixed well with each sample, followed by measurement of radioactivity using a β-ray analyzer. For the control group, uptake buffer containing no test compound was prepared. Moreover, another uptake buffer containing choline chloride instead of NaCl was also prepared for basal uptake.
# For determination of IC50 values, test compounds prepared at 6 appropriate concentrations were used and their concentrations required for 50% inhibition of the amount of sugar uptake (IC50 values) were calculated relative to the amount of sugar uptake in the control group (100%).
# [2] = tested on: streptozotocin (STZ)-induced diabetic rats; assay: Oral glucose tolerance test (OGTT) in streptozotocin-induced diabetic model rats; format: in vivo, rat; details: oral 1 mg/kg, glucose 2 g/kg, versus vehicle control
# Protocol: (1) Preparation of Diabetic Model Rats
# SD/IGS rats at 7 weeks of age (male, Charles River Laboratories Japan Inc.) were fasted for about 16 hours and then injected with 50 mg/kg streptozotocin (STZ) via the tail vein under ether anesthesia to prepare diabetic model rats. Similarly, another group of SD/IGS rats at 7 weeks of age was injected with 1.25 mmol/L citric acid in physiological saline (1 mL/kg) via the tail vein under ether anesthesia to prepare normal control rats. At one week after injection of STZ or 1.25 mmol/L citric acid in physiological saline, the rats were provided for an oral glucose tolerance test.
# (2) Oral Glucose Tolerance Test (OGTT)
# After the diabetic model rats were fasted for about 16 hours, drug groups were each orally administered with a drug (1 mg/kg) dissolved in a 0.5% aqueous carboxymethylcellulose sodium (CMC) solution, while the control group was orally administered with a 0.5% aqueous CMC solution alone. The drugs used were compounds 10, 11 and 33 disclosed in WO07/136116, as well as compounds 1-2, 5-2, 6-2, 13-2 and 15-2 according to the present invention. Immediately after drug administration, a glucose solution (2 g/kg) was orally administered and blood was collected at 6 points in total: before drug administration (0 hour) and 0.25, 0.5, 1, 1.5 and 2 hours after oral administration.
# Blood was collected from the tail vein of each rat without anesthesia using a heparin-coated blood collection tube, and centrifuged to separate plasma. Plasma glucose concentrations were quantified by measurement with a Glucose CII-Test Wako (Wako Pure Chemical Industries, Ltd., Japan). To determine the intensity of hypoglycemic effect, the blood glucose level before drug administration was subtracted from each blood glucose level measured until one hour after oral administration in each drug group, and the resulting values were analyzed by the trapezoidal method to calculate an increment in the area under the curve for glucose (ΔAUC), which was expressed as a decrease relative to ΔAUC of the control group.
Structure (SMILES),IC50 [1] [nM],STZ rats OGTT % inhibition ΔAUC0-1 h (mg/dl) @1 mg/kg/po [2] [%]
COc1cc(C(C)C)c(Cc2ccc(/C=C/C(C)(C)C(=O)NC(C)(C)C(=O)NCC(C)(C)N)cc2C)cc1[C@@H]1O[C@H](CO)[C@@H](O)[C@H](O)[C@H]1O [Example 13-2],14800,54
COc1cc(C(C)C)c(Cc2ccc(/C=C/C(C)(C)C(=O)NC(C)(C)C(=O)NCCN(C)C)cc2)cc1[C@@H]1O[C@H](CO)[C@@H](O)[C@H](O)[C@H]1O [Example 15-2],1280,62
Cc1cc(/C=C/C(C)(C)C(=O)NC(C)(C)C(=O)N2CCC(N(C)C)CC2)ccc1Cc1cc([C@@H]2O[C@H](CO)[C@@H](O)[C@H](O)[C@H]2O)c(O)cc1C(C)C [Example 5-2],802,66

# Further lines, with some results ahead:
IC50 [1] [nM],Structure (SMILES),STZ rats OGTT % inhibition ΔAUC0-1 h (mg/dl) @1 mg/kg/po [2] [%]
3110,Cc1cc(/C=C/C(C)(C)C(=O)NC(C)(C)C(=O)NCC(C)(C)N)ccc1Cc1cc([C@@H]2O[C@H](CO)[C@@H](O)[C@H](O)[C@H]2O)c(O)cc1C(C)C [Example 6-2],64
2690,Cc1cc(/C=C/C(C)(C)C(=O)NC(C)(C)C(=O)NCCN(C)C)ccc1Cc1cc([C@@H]2O[C@H](CO)[C@@H](O)[C@H](O)[C@H]2O)c(O)cc1C(C)C [Example 1-2],74
